Patent US20170304388A1, “NEW INDICATION OF CARDIOVASCULAR DRUGS FOR PREPARATION OF CANCER INHIBITION PHARMACEUTICAL COMPOSITION” (LAUNX BIOMEDICAL CO., LTD., priority 2014, published 2017)

How the values were obtained:
Type in all cases: cell-based
U2OS = assay: Cell viability analysis (WST-1), U2OS; conditions: Homo sapiens, U2OS, 72 h, Table 4, repeated experiments, drug 10 μM, read-out: survival rate (viability) of cancer cells, U2OS
In short: (§1)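 Wells receive 3000 cells, and the medium is swapped for drug at 10 μM. Seventy-two hours later, WST-1 reagent diluted 9:1 with medium is added, plates sit at 37° C for 30–90 minutes, and OD450 nm yields survival rate.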

C-33A = assay: Cell viability analysis (WST-1), C-33A; conditions: Homo sapiens, C-33-A, 72 h, Table 4, repeated experiments, drug 10 μM, read-out: survival rate (viability) of cancer cells, C-33A
In short: as §1

SAS = assay: Cell viability analysis (WST-1), SAS; conditions: 72 h, Table 4, repeated experiments, drug 10 μM, read-out: survival rate (viability) of cancer cells, SAS
In short: as §1

AsPC-1 = assay: Cell viability analysis (WST-1), AsPC-1; conditions: Homo sapiens, ASPC1, 72 h, Table 4, repeated experiments, drug 10 μM, read-out: survival rate (viability) of cancer cells, AsPC-1
In short: as §1

[1] = test system: MKN-45 (Gastric Adenocarcinoma); assay: Cell viability analysis (WST-1), MKN-45; conditions: Homo sapiens, MKN-45, 72 h, Table 4, repeated experiments, drug 10 μM, WST-1, read-out: survival rate (viability) of cancer cells, MKN-45
[2] = test system: TSGH-8301 (Urinary Bladder Carcinoma); assay: Cell viability analysis (WST-1), TSGH-8301; conditions: 72 h, Table 4, repeated experiments, drug 10 μM, WST-1, read-out: survival rate (viability) of cancer cells, TSGH-8301
[3] = test system: H1650 (Lung Adenocarcinoma); assay: Cell viability analysis (WST-1), H1650; conditions: Homo sapiens, NCI-H1650, 72 h, Table 4, repeated experiments, drug 10 μM, WST-1, read-out: survival rate (viability) of cancer cells, H1650
Hep3B = assay: Cell viability analysis (WST-1), Hep3B; conditions: Homo sapiens, Hep3B, 72 h, Table 4, repeated experiments, drug 10 μM, read-out: survival rate (viability) of cancer cells, Hep3B
In short: as §1

NIH-OVCAR-3 = assay: Cell viability analysis (WST-1), NIH-OVCAR-3; conditions: Homo sapiens, OVCAR-3, 72 h, Table 4, repeated experiments, drug 10 μM, read-out: survival rate (viability) of cancer cells, NIH-OVCAR-3
In short: as §1

T24 = assay: Cell viability analysis (WST-1), T24; conditions: Homo sapiens, T-24, 72 h, Table 4, repeated experiments, drug 10 μM, read-out: survival rate (viability) of cancer cells, T24
In short: as §1

[4] = test system: HepG2 (Hepatocellular Carcinoma); assay: Cell viability analysis (WST-1), HepG2; conditions: Homo sapiens, HepG2, 72 h, Table 4, repeated experiments, drug 10 μM, WST-1, read-out: survival rate (viability) of cancer cells, HepG2
BxPC-3 = assay: Cell viability analysis (WST-1), BxPC-3; conditions: Homo sapiens, BXPC-3, 72 h, Table 4, repeated experiments, drug 10 μM, read-out: survival rate (viability) of cancer cells, BxPC-3
In short: as §1

[5] = test system: LoVo (Colorectal Adenocarcinoma); assay: Cell viability analysis (WST-1), LoVo; conditions: Homo sapiens, LoVo, 72 h, Table 4, repeated experiments, drug 10 μM, WST-1, read-out: survival rate (viability) of cancer cells, LoVo
786-O = assay: Cell viability analysis (WST-1), 786-O; conditions: Homo sapiens, 786-0, 72 h, Table 4, repeated experiments, drug 10 μM, read-out: survival rate (viability) of cancer cells, 786-O
In short: as §1

[6] = test system: PC3 (Prostate Adenocarcinoma); assay: Cell viability analysis (WST-1), PC3; conditions: 72 h, Table 4, repeated experiments, drug 10 μM, WST-1, read-out: survival rate (viability) of cancer cells, PC-3
TOV-21G = assay: Cell viability analysis (WST-1), TOV-21G; conditions: Homo sapiens, TOV21G, 72 h, Table 4, repeated experiments, drug 10 μM, read-out: survival rate (viability) of cancer cells, TOV-21G
In short: as §1

[7] = test system: HCT116 (Colorectal Carcinoma); assay: Cell viability analysis (WST-1), HCT116; conditions: Homo sapiens, HCT-116, 72 h, Table 4, repeated experiments, drug 10 μM, WST-1, read-out: survival rate (viability) of cancer cells, HCT116
[8] = test system: A375 (Amelanotic Melanoma); assay: Cell viability analysis (WST-1), A375; conditions: Homo sapiens, A-375, 72 h, Table 4, repeated experiments, drug 10 μM, WST-1, read-out: survival rate (viability) of cancer cells, A375
MDA-MB231 = assay: Cell viability analysis (WST-1), MDA-MB231; conditions: Homo sapiens, MDA-MB-231, 72 h, Table 4, repeated experiments, drug 10 μM, read-out: survival rate (viability) of cancer cells, MDA-MB231
[9] = test system: AGS (Gastric Adenocarcinoma); assay: Cell viability analysis (WST-1), AGS; conditions: 72 h, Table 4, repeated experiments, drug 10 μM, WST-1, read-out: survival rate (viability) of cancer cells, AGS
cancer cell lines = assay: Growth inhibitory effects on the panel of cancer cell lines; conditions: drug 10 μM, 72 hours, WST-1
[10] = test system: A549 (Lung Adenocarcinoma); assay: Cell viability analysis (WST-1), A549; conditions: Homo sapiens, A549, 72 h, Table 4, repeated experiments, drug 10 μM, WST-1, read-out: survival rate (viability) of cancer cells, A549
[11] = test system: HeLa (Cervix Adenocarcinoma); assay: Cell viability analysis (WST-1), HeLa; conditions: Homo sapiens, HeLa, 72 h, Table 4, repeated experiments, drug 10 μM, WST-1, read-out: survival rate (viability) of cancer cells, HeLa
[12] = test system: MCF7 (Mammary Gland, Adenocarcinoma); assay: Cell viability analysis (WST-1), MCF7; conditions: Homo sapiens, MCF7, 72 h, Table 4, repeated experiments, drug 10 μM, WST-1, read-out: survival rate (viability) of cancer cells, MCF-7
BCC = assay: Cell viability analysis (WST-1), BCC; conditions: BCC, 72 h, Table 4, repeated experiments, drug 10 μM, read-out: survival rate (viability) of cancer cells, BCC

SMILES	viability at 10 µM (U2OS)	viability at 10 µM (C-33A)	viability at 10 µM (SAS)	viability at 10 µM (AsPC-1)	viability at 10 µM [1]	viability at 10 µM [2]	viability at 10 µM [3]	viability at 10 µM (Hep3B)	viability at 10 µM (NIH-OVCAR-3)	viability at 10 µM (T24)	viability at 10 µM [4]	viability at 10 µM (BxPC-3)	viability at 10 µM [5]	viability at 10 µM (786-O)	viability at 10 µM [6]	viability at 10 µM (TOV-21G)	viability at 10 µM [7]	viability at 10 µM [8]	viability at 10 µM (MDA-MB231)	viability at 10 µM [9]	further results
CC(C)N(CCC(C(N)=O)(c1ccccc1)c1ccccn1)C(C)C (centres unmarked) [Disopyramide Phosphate]	98.7%	98.5%	96.9%	77.2%	111%	115%	90.5%	113%	103%	87.6%	109%	69.9%	105%	102%	103%	94.3%	94%	114%	98.8%	95.9%	inhibition effect on different cancer cell lines (in words) (cancer cell lines): significant inhibition effect; viability at 10 µM [10]: 99.4%; viability at 10 µM [11]: 103%; viability at 10 µM [12]: 107%; viability at 10 µM (BCC): 110%
OC(CNCC(O)C1CCc2cc(F)ccc2O1)C1CCc2cc(F)ccc2O1 (centres unmarked) [Nebivolol(Bystolic), Nebivolol]	66.6%	77%	75.6%	88.7%	52.8%	38%	87.4%	44.8%	86.8%	97.6%	42.1%	74.4%	85.3%	38.3%	37%	86.2%	81.9%	44.9%	66.4%	26.6%	inhibition effect on different cancer cell lines (in words) (cancer cell lines): significant inhibition effect; viability at 10 µM [10]: 49%; viability at 10 µM [11]: 52%; viability at 10 µM [12]: 27%; viability at 10 µM (BCC): 55.8%
